# Assay results reported in ChEMBL document CHEMBL4219190, “Studies on synthesis of novel pyrido[2,3-d]pyrimidine derivatives, evaluation of their antimicrobial activity and molecular docking” (Bioorg Med Chem Lett, 2018).
# Calls of active or inactive are those of the source. The calls are words filed in the database; no cut-off is given here.
# Assays:
# Pichia sporocuriosa [1] = test: Antifungal activity against Issatchenkia hanoiensis MTCC 4755 after 24 hrs by well diffusion method; format: functional; conditions: MTCC 4755, 24 h
# Raoultella planticola [2] = test: Antibiofilm activity against Klebsiella planticola MTCC 530 after 24 hrs by crystal violet staining-based assay; format: functional, organism-based
# Candida albicans [3] = test: Antifungal activity against Candida albicans MTCC 854 after 24 hrs by well diffusion method; format: functional
# [Candida] aaseri [4] = Antifungal activity against Candida aaseri MTCC 1962 after 24 hrs by well diffusion method; format: functional; conditions: Yamadazyma aaseri, MTCC 1962, 24 h
# Raoultella planticola [5] = test: Bactericidal activity against Klebsiella planticola MTCC 530 incubated for 24 hrs followed by transfer of microbial suspension to Mueller Hinton agar plates and measured after 24 hrs post transfer; format: functional
# Nakaseomyces glabratus [6] = test: Antifungal activity against Candida glabrata MTCC 3019 after 24 hrs by well diffusion method; format: functional; conditions: MTCC 3019, 24 h
# Candida albicans [7] = test: Antifungal activity against Candida albicans MTCC 4748 after 24 hrs by well diffusion method; format: functional; conditions: MTCC 4748, 24 h
# Pichia kudriavzevii [8] = test: Fungicidal activity against Candida krusei MTCC 3020 incubated for 24 hrs followed by transfer of microbial suspension to Sabouraud dextrose agar plates and measured after 24 hrs post transfer; format: functional; conditions: MTCC 3020, 24 h
# Pseudomonas aeruginosa [9] = test: Antibiofilm activity against Pseudomonas aeruginosa MTCC 2453 after 24 hrs by crystal violet staining-based assay; format: functional, organism-based
# Candida parapsilosis [10] = test: Antifungal activity against Candida parapsilosis MTCC 1744 after 24 hrs by well diffusion method; format: functional
# Micrococcus luteus [11] = test: Antibacterial activity against Micrococcus luteus MTCC 2470 after 24 hrs by well diffusion method; format: functional
# Pichia sporocuriosa [12] = test: Fungicidal activity against Issatchenkia hanoiensis MTCC 4755 incubated for 24 hrs followed by transfer of microbial suspension to Sabouraud dextrose agar plates and measured after 24 hrs post transfer; format: functional; conditions: MTCC 4755, 24 h
# Escherichia coli [13] = test: Antibacterial activity against Escherichia coli MTCC 739 after 24 hrs by well diffusion method; format: functional
# Candida albicans [14] = test: Fungicidal activity against Candida albicans MTCC 227 incubated for 24 hrs followed by transfer of microbial suspension to Sabouraud dextrose agar plates and measured after 24 hrs post transfer; format: functional
# Candida albicans [15] = test: Fungicidal activity against Candida albicans MTCC 1637 incubated for 24 hrs followed by transfer of microbial suspension to Sabouraud dextrose agar plates and measured after 24 hrs post transfer; format: functional
# Candida albicans [16] = test: Fungicidal activity against Candida albicans MTCC 3018 incubated for 24 hrs followed by transfer of microbial suspension to Sabouraud dextrose agar plates and measured after 24 hrs post transfer; format: functional; conditions: MTCC 3018, 24 h
# Candida albicans [17] = test: Antifungal activity against Candida albicans MTCC 3017 after 24 hrs by well diffusion method; format: functional; conditions: MTCC 3017, 24 h
# Candida albicans [18] = test: Antifungal activity against Candida albicans MTCC 7315 after 24 hrs by well diffusion method; format: functional; conditions: MTCC 7315, 24 h
# Candida albicans [19] = test: Fungicidal activity against Candida albicans MTCC 4748 incubated for 24 hrs followed by transfer of microbial suspension to Sabouraud dextrose agar plates and measured after 24 hrs post transfer; format: functional; conditions: MTCC 4748, 24 h
# Candida albicans [20] = test: Antifungal activity against Candida albicans MTCC 227 after 24 hrs by well diffusion method; format: functional
# Nakaseomyces glabratus [21] = test: Fungicidal activity against Candida glabrata MTCC 3019 incubated for 24 hrs followed by transfer of microbial suspension to Sabouraud dextrose agar plates and measured after 24 hrs post transfer; format: functional; conditions: MTCC 3019, 24 h
# Staphylococcus aureus [22] = test: Antibacterial activity against Staphylococcus aureus MTCC 96 after 24 hrs by well diffusion method; format: functional; conditions: MTCC 96, 24 h
# Micrococcus luteus [23] = test: Bactericidal activity against Micrococcus luteus MTCC 2470 incubated for 24 hrs followed by transfer of microbial suspension to Mueller Hinton agar plates and measured after 24 hrs post transfer; format: functional
# Bacillus subtilis [24] = test: Antibiofilm activity against Bacillus subtilis MTCC 121 after 24 hrs by crystal violet staining-based assay; format: functional, organism-based
# Candida albicans [25] = test: Fungicidal activity against Candida albicans MTCC 183 incubated for 24 hrs followed by transfer of microbial suspension to Sabouraud dextrose agar plates and measured after 24 hrs post transfer; format: functional; conditions: MTCC 183, 24 h
# Staphylococcus aureus [26] = test: Antibiofilm activity against Staphylococcus aureus MLS16 MTCC 2940 after 24 hrs by crystal violet staining-based assay; format: functional, organism-based
# Candida albicans [27] = test: Antifungal activity against Candida albicans MTCC 183 after 24 hrs by well diffusion method; format: functional; conditions: MTCC 183, 24 h
# Bacillus subtilis [28] = test: Antibacterial activity against Bacillus subtilis MTCC 121 after 24 hrs by well diffusion method; format: functional
# Pseudomonas aeruginosa [29] = test: Bactericidal activity against Pseudomonas aeruginosa MTCC 2453 incubated for 24 hrs followed by transfer of microbial suspension to Mueller Hinton agar plates and measured after 24 hrs post transfer; format: functional
# Candida albicans [30] = test: Fungicidal activity against Candida albicans MTCC 3958 incubated for 24 hrs followed by transfer of microbial suspension to Sabouraud dextrose agar plates and measured after 24 hrs post transfer; format: functional; conditions: MTCC 3958, 24 h
# Candida parapsilosis [31] = test: Fungicidal activity against Candida parapsilosis MTCC 1744 incubated for 24 hrs followed by transfer of microbial suspension to Sabouraud dextrose agar plates and measured after 24 hrs post transfer; format: functional
# Staphylococcus aureus [32] = test: Bactericidal activity against Staphylococcus aureus MLS16 MTCC 2940 incubated for 24 hrs followed by transfer of microbial suspension to Mueller Hinton agar plates and measured after 24 hrs post transfer; format: functional
# Candida albicans [33] = test: Antifungal activity against Candida albicans MTCC 1637 after 24 hrs by well diffusion method; format: functional
# Raoultella planticola [34] = test: Antibacterial activity against Klebsiella planticola MTCC 530 after 24 hrs by well diffusion method; format: functional
# Pichia kudriavzevii [35] = test: Antifungal activity against Candida krusei MTCC 3020 after 24 hrs by well diffusion method; format: functional; conditions: MTCC 3020, 24 h
# Escherichia coli [36] = test: Bactericidal activity against Escherichia coli MTCC 739 incubated for 24 hrs followed by transfer of microbial suspension to Mueller Hinton agar plates and measured after 24 hrs post transfer; format: functional
# Pseudomonas aeruginosa [37] = test: Antibacterial activity against Pseudomonas aeruginosa MTCC 2453 after 24 hrs by well diffusion method; format: functional
# Candida albicans [38] = test: Fungicidal activity against Candida albicans MTCC 854 incubated for 24 hrs followed by transfer of microbial suspension to Sabouraud dextrose agar plates and measured after 24 hrs post transfer; format: functional
# Candida albicans [39] = test: Antifungal activity against Candida albicans MTCC 3018 after 24 hrs by well diffusion method; format: functional; conditions: MTCC 3018, 24 h
# [Candida] aaseri [40] = Fungicidal activity against Candida aaseri MTCC 1962 incubated for 24 hrs followed by transfer of microbial suspension to Sabouraud dextrose agar plates and measured after 24 hrs post transfer; format: functional; conditions: Yamadazyma aaseri, MTCC 1962, 24 h
# Staphylococcus aureus [41] = test: Antibiofilm activity against Staphylococcus aureus MTCC 96 after 24 hrs by crystal violet staining-based assay; format: functional, organism-based; conditions: Staphylococcus aureus, MTCC 96, 24 h; read-out: IC50
# Candida albicans [42] = test: Fungicidal activity against Candida albicans MTCC 7315 incubated for 24 hrs followed by transfer of microbial suspension to Sabouraud dextrose agar plates and measured after 24 hrs post transfer; format: functional; conditions: MTCC 7315, 24 h
# Bacillus subtilis [43] = test: Bactericidal activity against Bacillus subtilis MTCC 121 incubated for 24 hrs followed by transfer of microbial suspension to Mueller Hinton agar plates and measured after 24 hrs post transfer; format: functional
# Candida albicans [44] = test: Antifungal activity against Candida albicans MTCC 3958 after 24 hrs by well diffusion method; format: functional; conditions: MTCC 3958, 24 h
# Staphylococcus aureus [45] = test: Antibacterial activity against Staphylococcus aureus MLS16 MTCC 2940 after 24 hrs by well diffusion method; format: functional
# Candida albicans [46] = test: Fungicidal activity against Candida albicans MTCC 3017 incubated for 24 hrs followed by transfer of microbial suspension to Sabouraud dextrose agar plates and measured after 24 hrs post transfer; format: functional; conditions: MTCC 3017, 24 h
# Staphylococcus aureus [47] = test: Bactericidal activity against Staphylococcus aureus MTCC 96 incubated for 24 hrs followed by transfer of microbial suspension to Mueller Hinton agar plates and measured after 24 hrs post transfer; format: functional; conditions: MTCC 96, 24 h
structure (smiles),measurement,setting,value
O=C(NCCO)c1nc(-c2ccccc2)c2c(C(F)(F)F)cc(-c3ccccc3)nc2n1,MIC,Pichia sporocuriosa [1],15.6 µg/mL
same,IC50,Raoultella planticola [2],Not Active
same,MIC,Candida albicans [3],inactive
same,MIC,[Candida] aaseri [4],31.2 µg/mL
same,MBC,Raoultella planticola [5],inactive
same,MIC,Nakaseomyces glabratus [6],15.6 µg/mL
same,MIC,Candida albicans [7],62.5 µg/mL
same,MFC,Pichia kudriavzevii [8],62.5 µg/mL
same,IC50,Pseudomonas aeruginosa [9],Not Active
same,MIC,Candida parapsilosis [10],inactive
same,MIC,Micrococcus luteus [11],inactive
same,MFC,Pichia sporocuriosa [12],15.6 µg/mL
same,MIC,Escherichia coli [13],inactive
same,MFC,Candida albicans [14],inactive
same,MFC,Candida albicans [15],inactive
same,MFC,Candida albicans [16],31.2 µg/mL
same,MIC,Candida albicans [17],31.2 µg/mL
same,MIC,Candida albicans [18],31.2 µg/mL
same,MFC,Candida albicans [19],62.5 µg/mL
same,MIC,Candida albicans [20],inactive
same,MFC,Nakaseomyces glabratus [21],31.2 µg/mL
same,MIC,Staphylococcus aureus [22],31.2 µg/mL
same,MBC,Micrococcus luteus [23],inactive
same,IC50,Bacillus subtilis [24],Not Active
same,MFC,Candida albicans [25],62.5 µg/mL
same,IC50,Staphylococcus aureus [26],Not Active
same,MIC,Candida albicans [27],31.2 µg/mL
same,MIC,Bacillus subtilis [28],inactive
same,MBC,Pseudomonas aeruginosa [29],inactive
same,MFC,Candida albicans [30],62.5 µg/mL
same,MFC,Candida parapsilosis [31],inactive
same,MBC,Staphylococcus aureus [32],inactive
same,MIC,Candida albicans [33],inactive
same,MIC,Raoultella planticola [34],inactive
same,MIC,Pichia kudriavzevii [35],31.2 µg/mL
same,MBC,Escherichia coli [36],inactive
same,MIC,Pseudomonas aeruginosa [37],inactive
same,MFC,Candida albicans [38],inactive
same,MIC,Candida albicans [39],15.6 µg/mL
same,MFC,[Candida] aaseri [40],31.2 µg/mL
same,IC50,Staphylococcus aureus [41],21.6 µg/mL
same,MFC,Candida albicans [42],62.5 µg/mL
same,MBC,Bacillus subtilis [43],inactive
same,MIC,Candida albicans [44],31.2 µg/mL
same,MIC,Staphylococcus aureus [45],inactive
same,MFC,Candida albicans [46],62.5 µg/mL
same,MBC,Staphylococcus aureus [47],62.4 µg/mL
